Results: patent EP0726261A1, “Herbidical 1,2,4 thiadiazoles” (American Cyanamid Company, priority 1995, dated 1996)

Experiments:
Format in all cases: in vivo
Triticum aestivum [1] = assay: Preemergence herbicidal activity (Example 67); set-up: herbicide rating, TRZAW: scale not given here; details: pre, 800 g/ha; for herbicide rating, TRZAW: rated about 1-3 weeks after treatment
Method: (§1) Herbicidal evaluation of compounds of the invention is conducted on the following plant species:
(§2) The soil is a prepared horticultural substrate containing 30% peat, 20% volcanic clay, 30% bark residues and 20% polyamide/styromull in a 1:3 mixture with loamy sand. Test solutions are prepared by dissolving the test compound in acetone containing 0.5% of an alkylphenol/ethylene oxide condensate under the trademark, TRITON® X-155, and diluting with water as needed. The test solutions are applied as a spray to the 3-6 week old seedling plants at dose rates corresponding to 800g/ha in a volume equivalent to 400 L/ha. A pneumatic spraying device employing a Teejet nozzle SS 8002E operating at 3 bar is used for a predetermined time. After spraying, the treated plants are placed on greenhouse benches and cared for in a manner commensurate with conventional greenhouse practice. After 10-21 days, the treated plants are evaluated and rated according to the rating system provided below.
(§3) The soil surface is then sprayed with test solutions as described in the postemergence evaluation hereinabove. After spraying, the treated cups are placed on greenhouse benches and cared for in the manner commensurate with conventional greenhouse practice. About 1-3 weeks after treatment the cups are evaluated and rated according to the rating system provided hereinabove.

Hordeum vulgare [2] = assay: Preemergence herbicidal activity (Example 67); set-up: herbicide rating, HORVW: scale not given here; details: pre, 800 g/ha; for herbicide rating, HORVW: rated about 1-3 weeks after treatment
Method: as §1, §2, §3

Alopecurus myosuroides [3] = assay: Preemergence herbicidal activity (Example 67); set-up: herbicide rating, ALOMY: scale not given here; details: pre, 800 g/ha; for herbicide rating, ALOMY: rated about 1-3 weeks after treatment
Method: as §1, §2, §3

Setaria viridis [4] = assay: Preemergence herbicidal activity (Example 67); set-up: herbicide rating, SETVI: scale not given here; details: pre, 800 g/ha; for herbicide rating, SETVI: rated about 1-3 weeks after treatment
Method: as §1, §2, §3

Abutilon theophrasti [5] = assay: Preemergence herbicidal activity (Example 67); details: pre, 800 g/ha; for herbicide rating, ABUTH: rated about 1-3 weeks after treatment
Method: as §1, §2, §3

Amaranthus retroflexus [6] = assay: Preemergence herbicidal activity (Example 67); details: pre, 800 g/ha; for herbicide rating, AMARE: rated about 1-3 weeks after treatment
Method: as §1, §2, §3

Chenopodium album [7] = assay: Preemergence herbicidal activity (Example 67); details: pre, 800 g/ha; for herbicide rating, CHEAL: rated about 1-3 weeks after treatment
Method: as §1, §2, §3

Galium aparine [8] = assay: Preemergence herbicidal activity (Example 67); details: pre, 800 g/ha; for herbicide rating, GALAP: rated about 1-3 weeks after treatment
Method: as §1, §2, §3

Helianthus annuus [9] = assay: Preemergence herbicidal activity (Example 67); details: pre, 800 g/ha; for herbicide rating, HELAN: rated about 1-3 weeks after treatment
Method: as §1, §2, §3

Ipomoea hederacea [10] = assay: Preemergence herbicidal activity (Example 67); details: pre, 800 g/ha; for herbicide rating, IPOHE: rated about 1-3 weeks after treatment
Method: as §1, §2, §3

Veronica persica [11] = assay: Preemergence herbicidal activity (Example 67); details: pre, 800 g/ha; for herbicide rating, VERPE: rated about 1-3 weeks after treatment
Method: as §1, §2, §3

Zea mays [12] = assay: Preemergence herbicidal activity (Example 67); details: pre, 800 g/ha; for herbicide rating, ZEAMX: rated about 1-3 weeks after treatment
Method: as §1, §2, §3

Abutilon theophrasti [13] = assay: Postemergence herbicidal activity (Example 67); details: pos, 800 g/ha; for herbicide rating, ABUTH: rated after 10-21 days
Method: as §1, §2

Alopecurus myosuroides [14] = assay: Postemergence herbicidal activity (Example 67); details: pos, 800 g/ha; for herbicide rating, ALOMY: rated after 10-21 days
Method: as §1, §2

Amaranthus retroflexus [15] = assay: Postemergence herbicidal activity (Example 67); details: pos, 800 g/ha; for herbicide rating, AMARE: rated after 10-21 days
Method: as §1, §2

Chenopodium album [16] = assay: Postemergence herbicidal activity (Example 67); details: pos, 800 g/ha; for herbicide rating, CHEAL: rated after 10-21 days
Method: as §1, §2

Galium aparine [17] = assay: Postemergence herbicidal activity (Example 67); details: pos, 800 g/ha; for herbicide rating, GALAP: rated after 10-21 days
Method: as §1, §2

Helianthus annuus [18] = assay: Postemergence herbicidal activity (Example 67); details: pos, 800 g/ha; for herbicide rating, HELAN: rated after 10-21 days
Method: as §1, §2

Hordeum vulgare [19] = assay: Postemergence herbicidal activity (Example 67); details: pos, 800 g/ha; for herbicide rating, HORVW: rated after 10-21 days
Method: as §1, §2

Ipomoea hederacea [20] = assay: Postemergence herbicidal activity (Example 67); details: pos, 800 g/ha; for herbicide rating, IPOHE: rated after 10-21 days
Method: as §1, §2

Setaria viridis [21] = assay: Postemergence herbicidal activity (Example 67); details: pos, 800 g/ha; for herbicide rating, SETVI: rated after 10-21 days
Method: as §1, §2

Triticum aestivum [22] = assay: Postemergence herbicidal activity (Example 67); details: pos, 800 g/ha; for herbicide rating, TRZAW: rated after 10-21 days
Method: as §1, §2

Veronica persica [23] = assay: Postemergence herbicidal activity (Example 67); details: pos, 800 g/ha; for herbicide rating, VERPE: rated after 10-21 days
Method: as §1, §2

Zea mays [24] = assay: Postemergence herbicidal activity (Example 67); details: pos, 800 g/ha; for herbicide rating, ZEAMX: rated after 10-21 days
Method: as §1, §2

SMILES: CC(NC(=O)c1nsc(-c2cccc(C(F)(F)F)c2)n1)c1cccs1 (racemic) [Example 3, (R/S)-5-(3-Trifluoromethylphenyl)-[1,2,4]thiadiazole-3-carboxylic acid, [1-(2-thienyl)ethyl]amide]
- herbicide rating, TRZAW (Triticum aestivum [1]): 0
- herbicide rating, HORVW (Hordeum vulgare [2]): 0
- herbicide rating, ALOMY (Alopecurus myosuroides [3]): 0
- herbicide rating, SETVI (Setaria viridis [4]): 0
- herbicide rating, ABUTH (Abutilon theophrasti [5]): 0
- herbicide rating, AMARE (Amaranthus retroflexus [6]): 0
- herbicide rating, CHEAL (Chenopodium album [7]): 3 (16-29%)
- herbicide rating, GALAP (Galium aparine [8]): 0
- herbicide rating, HELAN (Helianthus annuus [9]): 0
- herbicide rating, IPOHE (Ipomoea hederacea [10]): 0
- herbicide rating, VERPE (Veronica persica [11]): 0
- herbicide rating, ZEAMX (Zea mays [12]): 0
- herbicide rating, ABUTH (Abutilon theophrasti [13]): 1 (1-5%)
- herbicide rating, ALOMY (Alopecurus myosuroides [14]): 3 (16-29%)
- herbicide rating, AMARE (Amaranthus retroflexus [15]): 2 (6-15%)
- herbicide rating, CHEAL (Chenopodium album [16]): 4 (30-44%)
- herbicide rating, GALAP (Galium aparine [17]): 2 (6-15%)
- herbicide rating, HELAN (Helianthus annuus [18]): 4 (30-44%)
- herbicide rating, HORVW (Hordeum vulgare [19]): 2 (6-15%)
- herbicide rating, IPOHE (Ipomoea hederacea [20]): 3 (16-29%)
- herbicide rating, SETVI (Setaria viridis [21]): 8 (91-99%)
- herbicide rating, TRZAW (Triticum aestivum [22]): 2 (6-15%)
- herbicide rating, VERPE (Veronica persica [23]): 0
- herbicide rating, ZEAMX (Zea mays [24]): 1 (1-5%)

SMILES: COCCc1nsc(C(=O)N[C@@H](C)c2ccccc2)n1 [Example 34]
- herbicide rating, TRZAW (Triticum aestivum [1]): 0
- herbicide rating, HORVW (Hordeum vulgare [2]): 0
- herbicide rating, ALOMY (Alopecurus myosuroides [3]): 0
- herbicide rating, SETVI (Setaria viridis [4]): 0
- herbicide rating, ABUTH (Abutilon theophrasti [5]): 0
- herbicide rating, AMARE (Amaranthus retroflexus [6]): 0
- herbicide rating, CHEAL (Chenopodium album [7]): 0
- herbicide rating, GALAP (Galium aparine [8]): 0
- herbicide rating, HELAN (Helianthus annuus [9]): 0
- herbicide rating, IPOHE (Ipomoea hederacea [10]): 0
- herbicide rating, VERPE (Veronica persica [11]): 3 (16-29%)
- herbicide rating, ZEAMX (Zea mays [12]): 0
- herbicide rating, ABUTH (Abutilon theophrasti [13]): 1 (1-5%)
- herbicide rating, ALOMY (Alopecurus myosuroides [14]): 3 (16-29%)
- herbicide rating, AMARE (Amaranthus retroflexus [15]): 0
- herbicide rating, CHEAL (Chenopodium album [16]): 2 (6-15%)
- herbicide rating, GALAP (Galium aparine [17]): 1 (1-5%)
- herbicide rating, HELAN (Helianthus annuus [18]): 2 (6-15%)
- herbicide rating, HORVW (Hordeum vulgare [19]): 0
- herbicide rating, IPOHE (Ipomoea hederacea [20]): 4 (30-44%)
- herbicide rating, SETVI (Setaria viridis [21]): 3 (16-29%)
- herbicide rating, TRZAW (Triticum aestivum [22]): 3 (16-29%)
- herbicide rating, VERPE (Veronica persica [23]): 2 (6-15%)
- herbicide rating, ZEAMX (Zea mays [24]): 0

SMILES: C[C@H](NC(=O)c1nsc(-c2ccc(F)cc2)n1)c1ccccc1 [Example 40, (S)-5-(4-Fluorophenyl)-[1,2,4]thiadiazole-3-carboxylic acid, 1-(phenylethyl)amide]
- TRZ AW rating (Triticum aestivum [1]): 0
- HOR VW rating (Hordeum vulgare [2]): 0
- ALO MY rating (Alopecurus myosuroides [3]): 0
- SET VI rating (Setaria viridis [4]): 4 (30-44%)
- ABU TH rating (Abutilon theophrasti [5]): 8 (91-99%)
- AMA RE rating (Amaranthus retroflexus [6]): 0
- CHE AL rating (Chenopodium album [7]): 4 (30-44%)
- GAL AP rating (Galium aparine [8]): 0
- HEL AN rating (Helianthus annuus [9]): 4 (30-44%)
- IPO HE rating (Ipomoea hederacea [10]): 0
- VER PE rating (Veronica persica [11]): 5 (45-64%)
- ZEA MX rating (Zea mays [12]): 0
- ABU TH rating (Abutilon theophrasti [13]): 8 (91-99%)
- ALO MY rating (Alopecurus myosuroides [14]): 5 (45-64%)
- AMA RE rating (Amaranthus retroflexus [15]): 8 (91-99%)
- CHE AL rating (Chenopodium album [16]): 8 (91-99%)
- GAL AP rating (Galium aparine [17]): 8 (91-99%)
- HEL AN rating (Helianthus annuus [18]): 9 (100% effect)
- HOR VW rating (Hordeum vulgare [19]): 6 (65-79%)
- IPO HE rating (Ipomoea hederacea [20]): 8 (91-99%)
- SET VI rating (Setaria viridis [21]): 9 (100% effect)
- TRZ AW rating (Triticum aestivum [22]): 4 (30-44%)
- VER PE rating (Veronica persica [23]): 8 (91-99%)
- ZEA MX rating (Zea mays [24]): 5 (45-64%)

SMILES: C[C@H](NC(=O)c1nsc(-c2ccccc2)n1)c1ccccc1 [Example 48, (S)-5-(Phenyl)-[1,2,4]thiadiazole-3-carboxylic acid, 1-(phenylethyl)amide]
- TRZ AW rating (Triticum aestivum [1]): 2 (6-15%)
- HOR VW rating (Hordeum vulgare [2]): 0
- ALO MY rating (Alopecurus myosuroides [3]): 0
- SET VI rating (Setaria viridis [4]): 0
- ABU TH rating (Abutilon theophrasti [5]): 0
- AMA RE rating (Amaranthus retroflexus [6]): 5 (45-64%)
- CHE AL rating (Chenopodium album [7]): 0
- GAL AP rating (Galium aparine [8]): 0
- HEL AN rating (Helianthus annuus [9]): 0
- IPO HE rating (Ipomoea hederacea [10]): 0
- VER PE rating (Veronica persica [11]): 5 (45-64%)
- ZEA MX rating (Zea mays [12]): 0
- ABU TH rating (Abutilon theophrasti [13]): 8 (91-99%)
- ALO MY rating (Alopecurus myosuroides [14]): 6 (65-79%)
- AMA RE rating (Amaranthus retroflexus [15]): 7 (80-90%)
- CHE AL rating (Chenopodium album [16]): 7 (80-90%)
- GAL AP rating (Galium aparine [17]): 7 (80-90%)
- HEL AN rating (Helianthus annuus [18]): 9 (100% effect)
- HOR VW rating (Hordeum vulgare [19]): 7 (80-90%)
- IPO HE rating (Ipomoea hederacea [20]): 7 (80-90%)
- SET VI rating (Setaria viridis [21]): 8 (91-99%)
- TRZ AW rating (Triticum aestivum [22]): 5 (45-64%)
- VER PE rating (Veronica persica [23]): 8 (91-99%)
- ZEA MX rating (Zea mays [24]): 5 (45-64%)

SMILES: C[C@H](NC(=O)c1nc(-c2ccc(Cl)cc2)ns1)c1ccccc1 [Example 27, (S)-3-(4-Chlorophenyl)-[1,2,4]thiadiazole-5-carboxylic acid, 1-(phenylethyl) amide]
- herbicide rating, TRZAW (Triticum aestivum [1]): 0
- herbicide rating, HORVW (Hordeum vulgare [2]): 0
- herbicide rating, ALOMY (Alopecurus myosuroides [3]): 0
- herbicide rating, SETVI (Setaria viridis [4]): 0
- herbicide rating, ABUTH (Abutilon theophrasti [5]): 0
- herbicide rating, AMARE (Amaranthus retroflexus [6]): 0
- herbicide rating, CHEAL (Chenopodium album [7]): 2 (6-15%)
- herbicide rating, GALAP (Galium aparine [8]): 0
- herbicide rating, HELAN (Helianthus annuus [9]): 3 (16-29%)
- herbicide rating, IPOHE (Ipomoea hederacea [10]): 1 (1-5%)
- herbicide rating, VERPE (Veronica persica [11]): 7 (80-90%)
- herbicide rating, ZEAMX (Zea mays [12]): 0
- herbicide rating, ABUTH (Abutilon theophrasti [13]): 6 (65-79%)
- herbicide rating, ALOMY (Alopecurus myosuroides [14]): 4 (30-44%)
- herbicide rating, AMARE (Amaranthus retroflexus [15]): 5 (45-64%)
- herbicide rating, CHEAL (Chenopodium album [16]): 4 (30-44%)
- herbicide rating, GALAP (Galium aparine [17]): 5 (45-64%)
- herbicide rating, HELAN (Helianthus annuus [18]): 8 (91-99%)
- herbicide rating, HORVW (Hordeum vulgare [19]): 2 (6-15%)
- herbicide rating, IPOHE (Ipomoea hederacea [20]): 7 (80-90%)
- herbicide rating, SETVI (Setaria viridis [21]): 8 (91-99%)
- herbicide rating, TRZAW (Triticum aestivum [22]): 2 (6-15%)
- herbicide rating, VERPE (Veronica persica [23]): 7 (80-90%)
- herbicide rating, ZEAMX (Zea mays [24]): 5 (45-64%)
